Reference: the METLIN SMRT retention time set (Domingo-Almenara et al. 2019)

Assay: gradient 5% acetonitrile 3 min, to 50% in 2 min, to 85% in 15 min, held 3 min, 100 µL/min
Conditions: column: Zorbax Extend-C18 2.1 x 50 mm; eluents: water / acetonitrile, 0.1% formic acid
Procedure, shortened: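 Each retention time is based on an adduct peak selected computationally and verified by manual inspection. Measurements used HPLC–quadrupole time-of-flight mass spectrometry in positive and negative ionization mode on mixtures of ~100 pure standards. Chromatography ran on a Zorbax Extend-C18 column (2.1 × 50 mm, 1.8 μm) at 100 μL/min with water and acetonitrile, each containing 0.1% formic acid, and dead and dwell volumes of 40 μL and 900 μL.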

| RP-LC retention time [s] | SMILES |
| --- | --- |
| 711 | O=C(c1ccco1)N1CCN(C(=O)c2cccn2CC(=O)N2CCc3ccccc32)CC1 |
| 790 | C=CCNC(=O)N1CCCN(C2=NS(=O)(=O)C(c3ccc(CC)cc3)=C2C)CC1 |
| 615 | Cc1ccc(=O)n(CCNC(=O)C2CC(=O)N(c3ccc(C)c(C)c3)C2)n1 (stereo unspecified) |
| 875 | CC1(C(=O)NCc2ccc(F)cc2)CCCN(C(=O)NC2COc3ccccc3C2)C1 (stereo unspecified) |
| 989 | Cc1cc(NC(=O)C2CCCN(c3nccnc3Oc3ccccc3)C2)ccc1Br (stereo unspecified) |
| 794 | CCc1noc(NC(C)=O)c1-c1ccc(OC)c(S(=O)(=O)NCc2ccc(F)cc2)c1 |
| 594 | Cn1c(=O)c(SCC(=O)NCCN2CCCCC2)nc2ccccc21 |
| 662 | CCOC(=O)N1CCN(C(=O)CCc2cc3cc(OC)ccc3[nH]c2=O)CC1 |
| 911 | CCc1nn(C)c(=O)c2cc(S(=O)(=O)NCc3ccc(Cl)cc3)cn12 |
| 980 | COC(=O)c1cnc(N2CCN(c3ccc(OC)cc3)CC2)c2ccccc12 |
| 1080 | COC(=O)c1ccc2c(=O)n(-c3ccc4c(c3)OCO4)c(N3CCCCC3)nc2c1 |
| 745 | CC(C)c1noc(-c2ccc(-n3cnc(C(=O)N4CCOCC4)c3)nc2)n1 |
| 766 | Cc1ccc(CNC(=O)CN2CCN(Cc3ccc(F)cc3)C2=O)o1 |
| 851 | CCOC(=O)c1c(C)[nH]c(C(=O)N2CCC(C(C)C(=O)NCc3ccccc3C)CC2)c1C (stereo unspecified) |
| 760 | C=CCNC(=O)C1CCCN(C(=O)Nc2ccc(NC(=O)Nc3ccc(C)cc3C)cc2)C1 (stereo unspecified) |
| 796 | COc1ccc(NC(=O)N2CCC(N3CCN(Cc4ccccc4)C3=O)CC2)c(OC)c1 |
| 641 | CCCNC(=O)N1CCN(Cc2nc3cccnc3n2-c2ccc(CC)cc2)CC1 |
| 696 | Cc1cc(Nc2ccccc2)nc(N2CCN(C(=O)Nc3ccc(F)cc3)CC2)n1 |
| 832 | CCS(=O)(=O)N1CCCc2cc(C(=O)NCc3ccc4c(c3)OCO4)ccc21 |
| 648 | Cc1cc(NC(=O)CCCS(=O)(=O)c2ccc(Cl)cc2)n(C)n1 |
| 682 | CCOC(=O)C1=C(C)NC(=O)NC1c1ccc(OCC(=O)N2CCCCC2)cc1 (stereo unspecified) |
| 751 | CC(Oc1ccccc1)c1nc(-c2ccc3c(c2)ncn3CCC(=O)N2CCCC2)no1 (stereo unspecified) |
| 701 | CCc1ccc(CNc2nc3ccncc3n(CC)c2=O)cc1 |
| 560 | Cn1c(=O)c(N2CCN(C(=O)c3ccc(Cl)cc3)CC2)nc2ccncc21 |
| 937 | CCN(CC)C(=O)N1CCC2(CC1)C(OC)C(=O)N2c1cccc(F)c1 (stereo unspecified) |
| 772 | CCn1c(C)c(CN2CCC(C(=O)NCc3cccc(Cl)c3)CC2)c2ccccc21 |

Further lines, the molecule ahead of its results:

| SMILES | RP-LC retention time [s] |
| --- | --- |
| Cc1cc(S(=O)(=O)N2CCc3c(c(-c4nnc(-c5ccccc5)o4)nn3C)C2)ccc1F | 703 |
| COc1ccccc1-c1nc(Cn2nnc(-c3nc(-c4ccccn4)no3)c2C)c(C)o1 | 827 |
| CCc1c(C)nc2nc(-c3ccccc3)nn2c1NCc1ccc(C)cc1 | 996 |
| Cc1noc([C@@H]2CN(Cc3ccc(F)c(Cl)c3)C[C@H]2CO)n1 | 605 |
| Cc1ccccc1NS(=O)(=O)c1cc(-c2[nH]ncc2C(=O)N2CCOCC2)oc1C | 678 |
| Cc1cccc(-c2noc(C3CCCN3S(=O)(=O)c3c(C)cc(C)cc3C)n2)c1 (stereo unspecified) | 1340 |
| CCOc1nn(CC)cc1C(=O)NCCc1c[nH]c2ccccc12 | 736 |
| CCc1c(C(=O)OC)ncc2[nH]c3cc(OC)c(OC)cc3c12 | 702 |
| CN(C1CCOCC1)C1CCN(C(=O)CCc2nc3ccccc3[nH]2)CC1 | 519 |
| O=c1ccc(-c2ccc(F)cc2)nn1Cc1nc(-c2ccc(F)cc2)no1 | 952 |
| CCn1c(=O)c2ccccc2n(Cc2nc(-c3ccc(F)c(Br)c3)no2)c1=O | 1120 |
| CC(=O)NCc1ccc(-c2noc(-c3ccc(N(C)C)cc3)n2)s1 | 861 |
| CCOc1ccccc1-c1noc(-c2nnn3c2COC(c2ccc(F)cc2)C3)n1 (stereo unspecified) | 1130 |
| Cc1ccsc1C(=O)N1CC(Oc2cccc(-c3nc(-c4ccccc4)no3)c2)C1 | 1280 |
| O=C(NC1CCCC1)C1CCCN(C(=O)c2cc(-c3ccccn3)n[nH]2)C1 (stereo unspecified) | 616 |
| O=C(NCCc1c[nH]c2ccccc12)c1cc(-c2ccc(F)cc2)c[nH]1 | 859 |
| CCn1c(=O)n(CC)c2cc(S(=O)(=O)c3ccc(C)cc3)c(NC(C)=O)cc21 | 759 |
| Cc1cc2c(=O)n(CC(=O)Nc3ccc(Cl)cc3)ccc2s1 | 852 |
| O=C(c1ccc(F)cc1)N1CCC(n2c(-c3ccco3)nc3cccnc32)C1 (stereo unspecified) | 689 |
| Cc1c(CCC(=O)N[C@H](C)C(=O)O)c(=O)oc2c(C)c(O)ccc12 | 618 |

| SMILES | RP-LC retention time [s] |
| --- | --- |
| O=S(=O)(Cc1ccccc1F)N1CC(c2nc(CCOCc3ccccc3)no2)C1 | 1010 |
| Cc1nc(-c2cnccn2)nc2c1CCC(=O)N2Cc1cccc(F)c1 | 733 |
| COc1cc(C2C(C(=O)N3CCCCC3)=C(C)NC3=C2C(=O)CCC3)ccc1OC(C)=O (stereo unspecified) | 647 |
| Cc1cc(N(C)C)nc(N2CCN(S(=O)(=O)c3cc(C)c(C)cc3C)CC2)n1 | 793 |
| CNC(=O)c1ccc(-c2nc3cc(NS(=O)(=O)c4ccc(Cl)s4)ccc3n2C)cc1 | 660 |
| CS(=O)(=O)N(Cc1cccnc1)C1CN(Cc2ccc(F)c(F)c2)C1 | 571 |
| CCOC(=O)c1ccc(-c2c(C(=O)OCC)oc3cc(O)c(CC)cc3c2=O)o1 | 955 |
| Cc1oc(-c2[nH]ncc2C(=O)N2CCOCC2)cc1S(=O)(=O)Nc1ccccc1 | 655 |
| Cc1ccc(Nc2c(-c3cccc(Br)c3)nc3cc(C)ccn23)cc1 | 857 |
| CN(Cc1ccco1)C(=O)C1CCCN(c2ncnc3c2nc2n3CCCCC2)C1 (stereo unspecified) | 738 |
| O=C(NCCc1ccccc1)NC(c1ccccc1)c1nnc(-c2ccccc2)o1 (stereo unspecified) | 876 |
| COc1ccc(C2(C(=O)N3CCC(Cc4nc(-c5ccccc5)n[nH]4)C3)CC2)cc1 (stereo unspecified) | 734 |
| O=C(Nc1cccc(Cl)c1)Nn1cnnc1 | 691 |
| COc1ccc(-c2nnc(-c3ccc(Cl)c(S(=O)(=O)N(C)C)c3)o2)cc1 | 913 |
| CCOc1ccccc1NC(=O)N1CCC2(C1)C(=O)Nc1ccc(OC)cc12 (stereo unspecified) | 810 |
| COc1ccc(C(=O)NCc2c(C)noc2C)cc1F | 693 |
| CCn1cc(CCNC(C)=O)c2cccnc21 | 561 |
| COc1cccc(-c2ccc(=O)n(CCCC(=O)Nc3cccc4nsnc34)n2)c1 | 764 |
| CCOc1ccc(S(=O)(=O)N2CCCC2c2nc(-c3cccc(Cl)c3)no2)cc1 (stereo unspecified) | 1230 |
| COc1ccc(NC(=O)N2CCC3(C2)C(=O)Nc2ccc(OC)cc23)cc1 (stereo unspecified) | 697 |
